Experimental findings from ChEMBL document CHEMBL5154933, “Development of Lipo-γ-AA Peptides as Potent Antifungal Agents” (J Med Chem, 2022) are described below.

For data set [1], the system named is Mucor racemosus. The experiment in a line: Antifungal activity against Mucor racemosus R715 assessed as fungal growth inhibition by broth microdilution assay. The format is functional.
For data set [2], the system named is Cryptococcus neoformans. Description: Antifungal activity against Cryptococcus neoformans H99 assessed as fungal growth inhibition by broth microdilution assay. It counts as functional.
For data set [3], the system named is Mucor racemosus. The experiment in a line: Antifungal activity against Mucor racemosus MZ140 assessed as fungal growth inhibition by broth microdilution assay. The format is functional.
The next data set deals with Pichia kudriavzevii. Description: Antifungal activity against Candida krusei ATCC6258 assessed as fungal growth inhibition by broth microdilution assay. It counts as functional.
Data set [4] has as its system Aspergillus fumigatus. The experiment in a line: Antifungal activity against Aspergillus fumigatus AF293 assessed as fungal growth inhibition by broth microdilution assay. It counts as functional.
The subject of data set [5] is Cryptococcus neoformans. The experiment in a line: Antifungal activity against Cryptococcus neoformans 5-FC assessed as fungal growth inhibition by broth microdilution assay. It counts as functional.
For data set [6], the system named is Candida albicans. The experiment in a line: Antifungal activity against Candida albicans CA17 assessed as fungal growth inhibition by broth microdilution assay. It counts as functional.
Data set [7] has as its system Candida albicans. Description: Fungicidal activity against Candida albicans SC5314 assessed as fungal growth inhibition incubated for 24 hrs by resazurin dye based assay. The format is functional.
The test system of data set [8] is Aspergillus fumigatus. The experiment in a line: Antifungal activity against Aspergillus fumigatus shjt40 assessed as fungal growth inhibition by broth microdilution assay. The format is functional.
The nature of data set [9]: Toxicity against Galleria mellonella larva infected with Candida albicans SC5314 assessed as increase in survival rate at 8 mg/kg measured for 14 days. The format is organism-based. The following applies: in vivo, 336 h, time 14 day.
In data set [10] the test system is Candida albicans. The experiment in a line: Antifungal activity against Candida albicans 28A assessed as fungal growth inhibition by broth microdilution assay. The format is functional.
A further data set deals with Candida parapsilosis. Description: Antifungal activity against Candida parapsilosis ATCC 22019 assessed as fungal growth inhibition by broth microdilution assay. The following applies: Lodderomyces parapsilosis. The format is functional.
Data set [11] concerns Cryptococcus deuterogattii. The experiment in a line: Antifungal activity against Cryptococcus gattii VGII R265 assessed as fungal growth inhibition by broth microdilution assay. It counts as functional, Cryptococcus gattii species complex.
For data set [12], the system named is Candida albicans. Description: Antifungal activity against Candida albicans SC5314 assessed as fungal growth inhibition by broth microdilution assay. It counts as functional.
Data set [13] relates to Candida albicans. The experiment in a line: Antifungal activity against Candida albicans CARG5 assessed as fungal growth inhibition by broth microdilution assay. It counts as functional.
A short description of data set [14]: Selectivity ratio of HC50 for hemolytic activity in human RBC to MIC for antifungal activity against Candida albicans SC5314. The format is toxicity. The conditions noted are these: red blood cells (erythrocytes).
Data set [15] is described as follows: Selectivity ratio of HC50 for hemolytic activity in human RBC to MIC for antifungal activity against Candida albicans CA17. The conditions noted are these: red blood cells (erythrocytes). The format is toxicity.
Data set [16] in a line: Selectivity ratio of HC50 for hemolytic activity in human RBC to MIC for antifungal activity against Candida krusei ATCC6258. It counts as toxicity. The conditions noted are these: red blood cells (erythrocytes).
Data set [17] can be described thus: Selectivity ratio of HC50 for hemolytic activity in human RBC to MIC for antifungal activity against Candida parapsilosis ATCC 22019. The format is toxicity. The conditions noted are these: red blood cells (erythrocytes).
The nature of data set [18]: Selectivity ratio of HC50 for hemolytic activity in human RBC to MIC for antifungal activity against Cryptococcus gattii R265. The following applies: red blood cells (erythrocytes). It counts as toxicity.
Data set [19] in a line: Selectivity ratio of HC50 for hemolytic activity in human RBC to MIC for antifungal activity against Candida albicans CARG5. It counts as toxicity. The following applies: red blood cells (erythrocytes).
The nature of data set [20]: Hemolytic activity in human RBC incubated for 1 hr by microplate reader method. The format is toxicity, cell-based, Erythrocyte. The following applies: red blood cells (erythrocytes).
Data set [21] can be described thus: Selectivity ratio of HC50 for hemolytic activity in human RBC to MIC for antifungal activity against Cryptococcus neoformans 5-FC. The conditions noted are these: red blood cells (erythrocytes). It counts as toxicity.
Data set [22] is described as follows: Selectivity ratio of HC50 for hemolytic activity in human RBC to MIC for antifungal activity against Cryptococcus neoformans H99. It counts as toxicity. The conditions noted are these: red blood cells (erythrocytes).
Data set [23] in a line: Selectivity ratio of HC50 for hemolytic activity in human RBC to MIC for antifungal activity against Candida albicans 28A. It counts as toxicity. The conditions noted are these: red blood cells (erythrocytes).
The next data set relates to Cell membrane. The experiment in a line: Induction of membrane permeabilization in Candida albicans SC5314 assessed as distruption of fungal cell membrane by measuring PI positive cells at 8 times MIC measured after 1 hrs by propidium iodide and DAPI staining based fluorescence microscopic analysis. The format is subcellular.
Data set [24] is described as follows: Selectivity ratio of HC50 for hemolytic activity in human RBC to MIC for antifungal activity against Aspergillus fumigatus AF293. It counts as toxicity. The following applies: red blood cells (erythrocytes).
A short description of data set [25]: Selectivity ratio of HC50 for hemolytic activity in human RBC to MIC for antifungal activity against Aspergillus fumigatus shjt40. It counts as toxicity. The following applies: red blood cells (erythrocytes).
Data set [26] in a line: Selectivity ratio of HC50 for hemolytic activity in human RBC to MIC for antifungal activity against Mucor racemosus MZ140. It counts as toxicity. The conditions noted are these: red blood cells (erythrocytes).
The nature of data set [27]: Selectivity ratio of HC50 for hemolytic activity in human RBC to MIC for antifungal activity against Mucor racemosus R715. The following applies: red blood cells (erythrocytes). The format is toxicity.

Structures are written as SMILES. Converted amounts (≈) assume the structure as drawn. The source made the active and inactive calls. No cut-off for these calls is given here.

For `OC(Cn1cncn1)(Cn1cncn1)c1ccc(F)cc1F` [FLUCONAZOLE], the MIC50 in the data set with Mucor racemosus [1] was over 32 mg/L; in the data set on Cryptococcus neoformans [2], 4 mg/L (≈ 13.1 µM); in the data set on Mucor racemosus [3] it was over 32 mg/L; with Pichia kudriavzevii, 32 mg/L (≈ 104 µM); in the data set on Aspergillus fumigatus [4], over 32 mg/L; in the data set with Cryptococcus neoformans [5] it was 2 mg/L (≈ 6.53 µM). The MIC50 in the data set with Candida albicans [6] is over 128 mg/L; with Aspergillus fumigatus [8] it was over 32 mg/L; in the data set with Candida albicans [10], over 128 mg/L; with Candida parapsilosis it was 2 mg/L (≈ 6.53 µM); in data set [11], 4 mg/L (≈ 13.1 µM); with Candida albicans [12], 1 mg/L (≈ 3.27 µM). In addition, the MIC50 with Candida albicans [13] is over 128 mg/L. Also, in the data set on Candida albicans [7], the minimal fungicidal concentration (MFC) is over 16 mg/L. In addition, in data set [9], the Activity entry is listed as “Non-Toxic”.
With `CCCCCCCCCCCCCCCC(=O)N[C@@H](CCCCN)C(=O)N[C@@H](Cc1ccccc1)CN(CC(N)=O)C(=O)CCN`, the selectivity ratio in data set [14], in data set [15], in [16], in data set [17], in [18] and in data set [19] was at most 125 in each case. Also, the selectivity ratio in data set [21], in data set [22] and in data set [23] was at most 125 throughout. In addition, the MIC50 turned out to be 4 mg/L (≈ 6.2 µM) in the data set with Cryptococcus neoformans [2]; 2 mg/L (≈ 3.1 µM) in the data set with Pichia kudriavzevii; 4 mg/L (≈ 6.2 µM) with Cryptococcus neoformans [5]; 4 mg/L (≈ 6.2 µM) in the data set on Candida albicans [6]; 4 mg/L (≈ 6.2 µM) with Candida albicans [10]; 2 mg/L (≈ 3.1 µM) in the data set on Candida parapsilosis. Further, the MIC50 (in data set [11]; in the data set on Candida albicans [12]; in the data set on Candida albicans [13]) was 4 mg/L (≈ 6.2 µM) throughout. In [20], this compound had an HC50 at 1 h of over 250 µg/mL.
Consider `C[C@@H]1[C@H](O)[C@@H](C)/C=C/C=C/C=C/C=C/C=C/C=C/C=C/[C@H](O[C@@H]2O[C@H](C)[C@@H](O)[C@H](N)[C@@H]2O)C[C@@H]2O[C@](O)(C[C@@H](O)C[C@@H](O)[C@H](O)CC[C@@H](O)C[C@@H](O)CC(=O)O[C@H]1C)C[C@H](O)[C@H]2C(=O)O`, for which the outcome in the data set on Cell membrane was Active.
Take `CCCCCCCCCCCCCCCCCC(=O)N[C@@H](CCCCN)C(=O)N[C@@H](Cc1ccccc1)CN(CC(N)=O)C(=O)CCN`: the selectivity ratio in [14], in data set [15], in data set [24], in data set [16], in data set [17] and in [18] was at most 125 in each case. For the same compound, the selectivity ratio in data set [19], in data set [25], in data set [26], in data set [27], in [21] and in data set [22] was at most 125 each time. Moreover, in data set [23], the selectivity ratio is at most 125. Moreover, the MIC50 stood at 16 mg/L (≈ 23.8 µM) with Mucor racemosus [1]; 2 mg/L (≈ 2.97 µM) with Cryptococcus neoformans [2]; 16 mg/L (≈ 23.8 µM) with Mucor racemosus [3]; 4 mg/L (≈ 5.94 µM) with Pichia kudriavzevii; 8 mg/L (≈ 11.9 µM) in the data set with Aspergillus fumigatus [4]; 2 mg/L (≈ 2.97 µM) in the data set on Cryptococcus neoformans [5]. The MIC50 in the data set on Candida albicans [6] is 4 mg/L (≈ 5.94 µM); with Aspergillus fumigatus [8] it was 8 mg/L (≈ 11.9 µM); with Candida albicans [10] it was 2 mg/L (≈ 2.97 µM); in the data set on Candida parapsilosis it was 2 mg/L (≈ 2.97 µM); in data set [11], 2 mg/L (≈ 2.97 µM); in the data set on Candida albicans [12] it was 2 mg/L (≈ 2.97 µM). The MIC50 in the data set on Candida albicans [13] worked out at 2 mg/L (≈ 2.97 µM). In [20], this compound gave an HC50 at 1 h of over 250 µg/mL.
For the compound `CCCCCCCCCCCCCCCC(=O)N[C@@H](CCCCN)C(=O)N[C@@H](Cc1ccccc1)CN(CC(N)=O)C(=O)CN`, the selectivity ratio in data set [14], in data set [15], in data set [16], in data set [17], in [18] and in [19] was at most 125 each time. Besides, the selectivity ratio in data set [21], in data set [22] and in data set [23] was at most 125 throughout. Also, the MIC50 came to 8 mg/L (≈ 12.7 µM) with Cryptococcus neoformans [2]; 4 mg/L (≈ 6.34 µM) with Pichia kudriavzevii; 8 mg/L (≈ 12.7 µM) in the data set on Cryptococcus neoformans [5]; 8 mg/L (≈ 12.7 µM) in the data set on Candida albicans [6]; 8 mg/L (≈ 12.7 µM) in the data set with Candida albicans [10]; 4 mg/L (≈ 6.34 µM) in the data set on Candida parapsilosis. Moreover, the MIC50 is 8 mg/L (≈ 12.7 µM) in data set [11], 4 mg/L (≈ 6.34 µM) with Candida albicans [12] and 8 mg/L (≈ 12.7 µM) with Candida albicans [13]. The HC50 at 1 h in data set [20] is over 250 µg/mL.
As for `CCC(C)n1ncn(-c2ccc(N3CCN(c4ccc(OCC5COC(Cn6cncn6)(c6ccc(Cl)cc6Cl)O5)cc4)CC3)cc2)c1=O` (centres undefined) [ITRACONAZOLE], the MIC50 in the data set on Mucor racemosus [1] is 1 mg/L (≈ 1.42 µM); in the data set on Mucor racemosus [3] it was 1 mg/L (≈ 1.42 µM); in the data set on Aspergillus fumigatus [4] it was 1 mg/L (≈ 1.42 µM); in the data set with Aspergillus fumigatus [8], over 32 mg/L.
For `CCCCCCCC/C=C\CCCCCCCC(=O)N[C@@H](CCCCN)C(=O)N[C@@H](Cc1ccccc1)CN(CC(N)=O)C(=O)CCN`, the selectivity ratio in data set [14], in [15], in data set [16], in [17], in [18] and in [19] was at most 125 in each case. Moreover, the selectivity ratio in data set [21], in [22] and in [23] was at most 125 in each case. In addition, the MIC50 in the data set on Cryptococcus neoformans [2], in the data set with Pichia kudriavzevii, in the data set with Cryptococcus neoformans [5], with Candida albicans [6], in the data set with Candida albicans [10] and with Candida parapsilosis was 4 mg/L (≈ 5.96 µM) throughout. Moreover, the MIC50 (in [11]; in the data set with Candida albicans [12]; with Candida albicans [13]) was 4 mg/L (≈ 5.96 µM) each time. In [20], this compound gave an HC50 at 1 h of over 250 µg/mL.
